Source: patent US9603950B1, “Compounds of imaging agent with HDAC inhibitor for treatment of Alzheimer syndrome and method of synthesis thereof” (INSTITUTE OF NUCLEAR ENERGY RESEARCH, priority 2015, dated 2017)

Legend:
Conditions in all cases: BNL-26 inhibitor labeled with 11C
HDAC1 = HDAC1 (Homo sapiens, UniProt Q13547); assay: HDAC1 inhibition, previous study of 11C-labeled BNL-26; type: biochemical
HDAC2 = HDAC2 (Homo sapiens, UniProt Q92769); assay: HDAC2 inhibition, previous study of 11C-labeled BNL-26; type: biochemical
[1] = Penetration of the brain blood vessel barrier, previous study of 11C-labeled BNL-26; type: in vivo

Sequence of HDAC1 (Q13547 whole entry, species assumed): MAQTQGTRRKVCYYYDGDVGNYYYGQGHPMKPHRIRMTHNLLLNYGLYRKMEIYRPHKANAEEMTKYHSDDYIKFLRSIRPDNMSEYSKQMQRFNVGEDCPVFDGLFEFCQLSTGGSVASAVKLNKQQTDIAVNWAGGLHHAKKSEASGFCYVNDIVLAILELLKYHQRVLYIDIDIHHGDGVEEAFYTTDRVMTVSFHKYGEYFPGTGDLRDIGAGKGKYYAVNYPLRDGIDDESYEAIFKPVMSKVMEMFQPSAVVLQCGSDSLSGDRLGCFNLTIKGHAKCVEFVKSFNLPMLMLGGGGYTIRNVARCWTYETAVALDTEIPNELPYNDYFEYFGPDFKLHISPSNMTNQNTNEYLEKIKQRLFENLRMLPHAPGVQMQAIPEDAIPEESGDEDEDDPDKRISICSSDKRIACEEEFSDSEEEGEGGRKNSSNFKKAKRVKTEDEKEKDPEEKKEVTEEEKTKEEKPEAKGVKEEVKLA
Sequence of HDAC2 (Q92769 whole entry, species assumed): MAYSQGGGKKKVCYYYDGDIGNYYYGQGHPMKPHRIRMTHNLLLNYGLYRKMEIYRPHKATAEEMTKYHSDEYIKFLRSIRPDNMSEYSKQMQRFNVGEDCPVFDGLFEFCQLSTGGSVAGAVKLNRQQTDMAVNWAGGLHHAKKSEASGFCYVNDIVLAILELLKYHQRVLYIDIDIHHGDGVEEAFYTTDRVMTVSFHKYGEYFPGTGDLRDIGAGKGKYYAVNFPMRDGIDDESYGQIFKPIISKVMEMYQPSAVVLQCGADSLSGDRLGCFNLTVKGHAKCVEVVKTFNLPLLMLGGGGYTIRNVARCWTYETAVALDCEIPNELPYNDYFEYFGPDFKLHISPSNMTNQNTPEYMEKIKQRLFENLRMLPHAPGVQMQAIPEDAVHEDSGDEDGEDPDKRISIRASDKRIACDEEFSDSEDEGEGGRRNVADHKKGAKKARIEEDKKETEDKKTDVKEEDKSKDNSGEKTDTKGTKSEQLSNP

- inhibitory effect of HDAC1 (HDAC1): good inhibitory effect
- inhibitory effect of HDAC2 (HDAC2): good inhibitory effect
- ability to penetrate the brain blood vessel barrier [1]: very good
SMILES: CN(C)Cc1ccc(C(=O)Nc2cc(-c3ccccc3)ccc2N)cc1 [BNL-26, N-(4-amino-[1,1′-biphenyl]-3-yl)-4-((dimethylamino)methyl)benzamide]
